Results: ChEMBL document CHEMBL5715954, “Silencing c-Myc translation as a therapeutic strategy through targeting PI3Kδ and CK1ε in hematological malignancies” (Blood, 2017)

Columns and labels:
Parameters in all cases: scale not given: the % may be the effect or the level left
[1] = molecular target: T1, Mitogen-activated protein kinase 13 (Homo sapiens) (UniProt O15264); assay: Inhibition of human P38d assessed as enzyme activity at 1 uM using myelin basic protein as substrate preincubated for 20 mins followed by [gamma-33P]-ATP addition and measured after 120 mins by radiometric Hot-SpotSM Kinase assay relative to control
T1 sequence (whole entry): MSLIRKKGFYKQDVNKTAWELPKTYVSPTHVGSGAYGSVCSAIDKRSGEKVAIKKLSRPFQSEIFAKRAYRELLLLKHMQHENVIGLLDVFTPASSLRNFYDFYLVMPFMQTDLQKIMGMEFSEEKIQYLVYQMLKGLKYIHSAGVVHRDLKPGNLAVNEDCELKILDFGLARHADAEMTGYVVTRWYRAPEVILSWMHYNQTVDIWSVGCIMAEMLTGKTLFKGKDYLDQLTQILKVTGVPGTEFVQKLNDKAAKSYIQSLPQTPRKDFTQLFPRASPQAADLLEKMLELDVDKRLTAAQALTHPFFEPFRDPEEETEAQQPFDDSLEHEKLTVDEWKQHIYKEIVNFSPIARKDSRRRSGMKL

[2] = molecular target: T2, Ephrin type-B receptor 2 (Homo sapiens) (UniProt P29323); assay: Inhibition of human EPHB2 assessed as enzyme activity at 1 uM using poly[Glu:Tyr] (4:1) as substrate preincubated for 20 mins followed by [gamma-33P]-ATP addition and measured after 120 mins by radiometric Hot-SpotSM Kinase assay relative to control
T2 sequence (whole entry): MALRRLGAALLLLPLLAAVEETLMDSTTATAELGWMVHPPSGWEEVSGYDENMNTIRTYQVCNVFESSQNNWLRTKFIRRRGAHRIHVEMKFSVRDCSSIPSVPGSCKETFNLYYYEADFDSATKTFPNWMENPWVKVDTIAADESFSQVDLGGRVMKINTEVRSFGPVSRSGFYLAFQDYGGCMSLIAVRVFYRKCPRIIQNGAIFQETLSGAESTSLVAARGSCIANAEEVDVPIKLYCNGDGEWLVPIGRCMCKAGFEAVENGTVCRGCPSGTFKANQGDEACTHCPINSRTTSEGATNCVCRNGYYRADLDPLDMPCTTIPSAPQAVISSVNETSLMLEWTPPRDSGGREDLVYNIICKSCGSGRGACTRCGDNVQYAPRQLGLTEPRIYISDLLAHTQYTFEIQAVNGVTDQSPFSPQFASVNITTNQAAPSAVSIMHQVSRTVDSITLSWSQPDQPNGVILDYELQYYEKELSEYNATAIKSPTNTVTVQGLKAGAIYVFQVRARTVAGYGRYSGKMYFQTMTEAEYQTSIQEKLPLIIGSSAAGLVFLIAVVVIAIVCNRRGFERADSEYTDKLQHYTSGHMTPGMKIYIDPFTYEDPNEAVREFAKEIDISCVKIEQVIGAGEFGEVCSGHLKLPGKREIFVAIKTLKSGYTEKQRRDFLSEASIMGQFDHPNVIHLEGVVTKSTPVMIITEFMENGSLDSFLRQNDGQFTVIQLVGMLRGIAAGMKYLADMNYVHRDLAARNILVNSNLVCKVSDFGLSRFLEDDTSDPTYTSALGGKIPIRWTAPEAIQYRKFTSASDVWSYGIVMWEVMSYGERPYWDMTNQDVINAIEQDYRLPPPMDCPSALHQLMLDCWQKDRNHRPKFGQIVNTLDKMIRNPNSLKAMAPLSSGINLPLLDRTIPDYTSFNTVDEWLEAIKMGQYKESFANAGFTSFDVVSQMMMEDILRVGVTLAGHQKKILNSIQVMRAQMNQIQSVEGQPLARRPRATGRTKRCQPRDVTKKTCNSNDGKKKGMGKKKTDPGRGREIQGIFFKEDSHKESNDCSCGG

[3] = molecular target: Calcium/calmodulin-dependent protein kinase type 1 (Homo sapiens) (UniProt Q14012); assay: Inhibition of human CAMK1a assessed as enzyme activity at 1 uM using KKALRRQETVDAL as substrate preincubated for 20 mins followed by [gamma-33P]-ATP addition and measured after 120 mins by radiometric Hot-SpotSM Kinase assay relative to control
[4] = molecular target: RAC-gamma serine/threonine-protein kinase (Homo sapiens) (UniProt Q9Y243); assay: Inhibition of human AKT3 assessed as enzyme activity at 1 uM using KGSGSGRPRTSSFAEG as substrate preincubated for 20 mins followed by [gamma-33P]-ATP addition and measured after 120 mins by radiometric Hot-SpotSM Kinase assay relative to control
[5] = molecular target: T3, Testis-specific serine/threonine-protein kinase 1 (Homo sapiens) (UniProt Q9BXA7); assay: Inhibition of human STK22D assessed as enzyme activity at 1 uM using KKKVSRSGLYRSPSMPENLNRPR as substrate preincubated for 20 mins followed by [gamma-33P]-ATP addition and measured after 120 mins by radiometric Hot-SpotSM Kinase assay relative to control
T3 sequence (whole entry): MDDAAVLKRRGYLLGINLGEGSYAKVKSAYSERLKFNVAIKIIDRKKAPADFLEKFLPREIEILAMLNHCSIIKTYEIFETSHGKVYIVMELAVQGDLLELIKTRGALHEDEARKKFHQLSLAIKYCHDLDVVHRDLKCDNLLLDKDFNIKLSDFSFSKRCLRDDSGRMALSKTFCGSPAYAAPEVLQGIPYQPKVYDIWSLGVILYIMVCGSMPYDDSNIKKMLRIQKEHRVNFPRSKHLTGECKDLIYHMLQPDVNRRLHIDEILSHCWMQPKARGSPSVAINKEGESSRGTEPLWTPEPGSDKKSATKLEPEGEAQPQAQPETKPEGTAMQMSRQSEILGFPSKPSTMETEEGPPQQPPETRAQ

[6] = molecular target: T4, TGF-beta receptor type-1 (Homo sapiens) (UniProt P36897); assay: Inhibition of human ALK5 assessed as enzyme activity at 1 uM using casein as substrate preincubated for 20 mins followed by [gamma-33P]-ATP addition and measured after 120 mins by radiometric Hot-SpotSM Kinase assay relative to control
T4 sequence (whole entry): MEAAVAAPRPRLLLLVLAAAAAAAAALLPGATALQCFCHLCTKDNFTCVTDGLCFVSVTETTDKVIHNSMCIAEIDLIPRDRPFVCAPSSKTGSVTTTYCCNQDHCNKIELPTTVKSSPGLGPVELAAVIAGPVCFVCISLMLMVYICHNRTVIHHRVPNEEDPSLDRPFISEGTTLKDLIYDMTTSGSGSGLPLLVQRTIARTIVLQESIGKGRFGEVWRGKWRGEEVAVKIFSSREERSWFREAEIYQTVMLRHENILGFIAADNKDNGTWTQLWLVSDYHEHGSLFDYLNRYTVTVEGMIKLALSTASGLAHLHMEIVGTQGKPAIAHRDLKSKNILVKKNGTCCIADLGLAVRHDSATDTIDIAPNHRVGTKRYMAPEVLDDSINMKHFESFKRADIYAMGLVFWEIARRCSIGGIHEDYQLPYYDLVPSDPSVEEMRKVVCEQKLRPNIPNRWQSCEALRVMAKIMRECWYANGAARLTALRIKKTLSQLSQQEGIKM

Chain of Calcium/calmodulin-dependent protein kinase type 1 (Homo sapiens) (Q14012 whole entry, looked up): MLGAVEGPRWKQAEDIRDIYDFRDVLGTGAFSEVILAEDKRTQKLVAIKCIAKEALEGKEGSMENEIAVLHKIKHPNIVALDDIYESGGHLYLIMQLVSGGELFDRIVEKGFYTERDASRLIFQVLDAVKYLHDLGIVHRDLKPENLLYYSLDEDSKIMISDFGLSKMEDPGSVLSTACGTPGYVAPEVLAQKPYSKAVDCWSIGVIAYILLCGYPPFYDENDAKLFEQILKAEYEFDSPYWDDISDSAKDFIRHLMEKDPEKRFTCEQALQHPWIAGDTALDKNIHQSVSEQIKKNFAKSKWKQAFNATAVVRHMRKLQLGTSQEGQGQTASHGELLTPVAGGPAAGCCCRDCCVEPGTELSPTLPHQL
Chain of RAC-gamma serine/threonine-protein kinase (Homo sapiens) (Q9Y243 whole entry): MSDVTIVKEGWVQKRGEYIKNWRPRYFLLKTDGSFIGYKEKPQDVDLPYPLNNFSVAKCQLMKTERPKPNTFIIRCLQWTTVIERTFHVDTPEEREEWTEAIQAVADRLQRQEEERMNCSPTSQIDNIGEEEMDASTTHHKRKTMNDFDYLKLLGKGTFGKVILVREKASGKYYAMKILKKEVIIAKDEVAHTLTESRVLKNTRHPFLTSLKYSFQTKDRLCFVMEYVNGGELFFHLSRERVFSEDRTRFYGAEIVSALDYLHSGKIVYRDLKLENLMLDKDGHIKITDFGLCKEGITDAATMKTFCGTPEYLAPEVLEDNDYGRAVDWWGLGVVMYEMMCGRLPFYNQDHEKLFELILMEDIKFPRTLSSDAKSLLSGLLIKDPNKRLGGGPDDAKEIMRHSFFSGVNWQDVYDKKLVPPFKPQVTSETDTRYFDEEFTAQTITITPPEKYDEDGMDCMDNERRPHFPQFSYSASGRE

SMILES	Activity [1] [%]	Activity [2] [%]	Activity [3] [%]	Activity [4] [%]	Activity [5] [%]	Activity [6] [%]
C[C@H](Nc1ncnc2nc[nH]c12)c1cc2cccc(Cl)c2c(=O)n1-c1ccccc1	105	92	103	99.8	93.9	108
CC[C@H](Nc1ncnc2[nH]cnc12)c1nc2cccc(F)c2c(=O)n1-c1ccccc1	96.5	91.9	96.8	102	98	108
CC(C)Oc1ccc(-c2nn([C@@H](C)c3oc4ccc(F)cc4c(=O)c3-c3cccc(F)c3)c3ncnc(N)c23)cc1F [UMBRALISIB]	104	95.9	99.6	100	95.5	109
